This is an account of results in patent US7285546B2, “Cephalotaxanes, their method of preparation and their use in treatment of cancers, leukemias, parasites including those resistant to usual chemotherapeutic agents and as reversal agents” (Stragen Pharma S.A., priority 2000, dated 2007).

Converted amounts (≈) assume the structure as drawn.

By IC50 is commonly meant the midpoint of a concentration-inhibition curve.

This assay has as its system K562 cell line. Kind of assay: MTT test of structural analogues of harringtonines on K562 cell line. Type of assay: cell-based. On the procedure:
Structural analogues of harringtonines described in this invention were tested on K562 cell line, derived from chronic myeloid leukemia cells in blastic transformation (bcr-abl positive). The cell line was purchased from ATCC (American Tissue Culture Collection) and grown in RPMI medium supplemented with 10% heat-inactivated fetal calf serum, 2 mmol/L glutamine, […] penicillin and […] streptomycin. All tested products were initially dissolved in […] (pH=2), supplemented with ultrasound treatment during 1 h. Working concentrations were made by dilution in culture medium (pH around 7). Cells in exponential growth phase were placed into 96-microwell plates in concentration 3×10^4/mL (total volume 200 μL/well) and incubated with drugs for 72 h at 37° C. in 5% CO2 humidified atmosphere. Following incubation, 2 μL of MTT solution (Sigma, St. Louis, Mo.) was added to each well. During the following 6 h of incubation at 37° C., the purple formazan product was formed by conversion of the yellow MTT salt in the mitochondria of the viable cells. The resulting precipitate was dissolved in DMSO and the amount of converted MTT was quantified in an ELISA reader (MR 5000, Dynatech). Each product was tested in triplicate (3×8 wells). Every test contained at least one plate with HHT as control, added in the same concentration as the tested products.
In general terms: Formazan colour is commonly taken as a measure of viable cells.

Setting [1] is: K562 cell line, 72 h incubation, MTT.

Molecule `COC1=C[C@@]23CCCN2CCc2cc4c(cc2[C@@H]3C1OC(=O)[C@@](O)(CCCC(C)(C)O)CC(=O)OCC=C(C)C)OCO4` (stereo partly drawn) [Example 39, (2′R)-4′-(3-methyl-2-butenyl)-4′-demethyl-homoharringtonine] displayed an IC50 (Homo sapiens, K562, 72 h) of 0.028 µg/mL (≈ 0.0467 µM).
Same read-out and setting: then `CCCCCCOC(=O)C[C@](O)(CCC(C)C)C(=O)OC1C(OC)=C[C@@]23CCCN2CCc2cc4c(cc2[C@H]13)OCO4` (stereo partly drawn) [Example 84, (2′ R)-4′-hexanyloxy-4′-demethyldeoxyharringtonine], with 0.007 µg/mL (≈ 0.012 µM).
Still for that read-out and setting: the figure for `COC1=C[C@]23CCCN2CCc2cc4c(cc2[C@@H]3[C@@H]1O)OCO4` [CEPHALOTAXINE (CTX), cephalotaxine, reference compound] is 2 µg/mL (≈ 6.34 µM); for `COC1=C[C@@]23CCCN2CCc2cc4c(cc2[C@@H]3C1OC(=O)[C@@](O)(CCCC(C)(C)O)CC(=O)OCc1ccco1)OCO4` (stereo partly drawn) [Example 83, (2′R)-4′-furfuryl-4′-demethyl-homoharringtonine] it is 0.003 µg/mL (≈ 0.0049 µM).
On the same count and under the same terms, then `CC=CCOC(=O)C[C@](O)(CCC(C)(C)O)C(=O)OC1C(OC)=C[C@@]23CCCN2CCc2cc4c(cc2[C@H]13)OCO4` (stereo partly drawn) [Example 55, (2′R)-4′-(but-2-enyl)-4′-demethyl-harringtonine], with 0.014 µg/mL (≈ 0.0245 µM).
For “4-(hexa-2,4-dienyl) (2R)-2-hydroxy-2-(4-hydroxy-4-methylpentyl)succinate of (−)-drupacine [Example 57]”, half-maximal inhibition under setting [1] (IC50) was put at 0.009 µg/mL.
As to `CC#CCOC(=O)C[C@](O)(CCCC(C)(C)O)C(=O)OC1C(OC)=C[C@@]23CCCN2CCc2cc4c(cc2[C@H]13)OCO4` (stereo partly drawn) [Example 42, (2′R)-4′-(2-butynyl)-4′-demethyl-homoharringtonine], inhibition (Homo sapiens, K562, 72 h) was half-maximal at 0.0105 µg/mL (≈ 0.018 µM) (IC50).
`C=C(C)COC(=O)C[C@](O)(CCCC(C)(C)O)C(=O)O[C@@H]1C(OC)=C[C@]23CCCN2CCc2cc4c(cc2[C@H]13)OCO4` [Example 41, (2′R)-4′-(2-methyl-2-propenyl)-4′-demethyl-homoharringtonine] showed an IC50 under setting [1] of 0.0085 µg/mL (≈ 0.0145 µM).
For the molecule `COC1=C[C@@]23CCCN2CCc2cc4c(cc2[C@@H]3C1OC(=O)[C@@](O)(CCCC(C)(C)O)CC(=O)SC(C)(C)C)OCO4` (stereo partly drawn) [Example 36, (2′R)-4′-tert-butylthio-4′-demethoxy-homoharringtonine], the IC50 (Homo sapiens, K562, 72 h) amounted to 0.02 µg/mL (≈ 0.0331 µM).
`COC1=C[C@@]23CCCN2CCc2cc4c(cc2[C@@H]3C1OC(=O)[C@@](O)(CCCC(C)(C)O)CC(=O)OCCCCCO)OCO4` (stereo partly drawn) [Example 74, (2′R)-4′-(5-hydroxypentyl)-4′-demethyl-homo harringtonine] returned an IC50 (Homo sapiens, K562, 72 h) of 0.024 µg/mL (≈ 0.0389 µM).
With `COC1=C[C@@]23CCCN2CCc2cc4c(cc2[C@@H]3C1OC(=O)[C@@](O)(CCCC(C)(C)O)CC(=O)OCC1CC1)OCO4` (stereo partly drawn) [Example 49, (2′R)-4′-cyclopropylmethyl-4′-demethyl-homoharringtonine], the IC50 (Homo sapiens, K562, 72 h) amounted to 0.07 µg/mL (≈ 0.12 µM).
In turn, `COC1=C[C@@]23CCCN2CCc2cc4c(cc2[C@@H]3C1OC(=O)[C@@](O)(CCCC(C)(C)O)CC(=O)OCc1cccs1)OCO4` (stereo partly drawn) [Example 82, (2′R)-4′-(2-thiophenemethoxy)-4′-demethyl-homoharringtonine] yielded an IC50 (Homo sapiens, K562, 72 h) of 0.005 µg/mL (≈ 0.00796 µM).
Same read-out and setting: the figure for `CC=CCOC(=O)C[C@](O)(CCCC(C)(C)O)C(=O)OC1[C@H]2c3cc4c(cc3[C@@H]3CN5CCC[C@@]25C[C@@]1(OC)O3)OCO4` (stereo partly drawn) [Example 56, 4-(2-butenyl) (2R)-2-hydroxy-2-(4-hydroxy-4-methylpentyl)succinate of (−)-drupacine] is 0.0135 µg/mL (≈ 0.0224 µM); for `COC1=C[C@@]23CCCN2CCc2cc4c(cc2[C@@H]3C1OC(=O)[C@@](O)(CCCC(C)(C)O)CC(=O)OCC(F)(F)F)OCO4` (stereo partly drawn) [Example 48, (2′R)-4′-(2,2,2-trifluoroethyl)-4′-demethyl-homoharringtonine] it is 0.1 µg/mL (≈ 0.163 µM); for `CCCCOC(=O)C[C@](O)(CCCC(C)(C)O)C(=O)OC1C(OC)=C[C@@]23CCCN2CCc2cc4c(cc2[C@H]13)OCO4` (stereo partly drawn) [Example 50, (2′R)-4′-butyl-4′-demethyl-homoharringtonine] it is 0.013 µg/mL (≈ 0.0221 µM).
